The record followed here is patent publication US5114937A, “Renin inhibiting nonpeptides” (Warner-Lambert Company, priority 1989, dated 1992).

Each structure is given as a SMILES string.

One test has as its target T1, renin (Homo sapiens, UniProt P00797).
T1 sequence (P00797 67-406): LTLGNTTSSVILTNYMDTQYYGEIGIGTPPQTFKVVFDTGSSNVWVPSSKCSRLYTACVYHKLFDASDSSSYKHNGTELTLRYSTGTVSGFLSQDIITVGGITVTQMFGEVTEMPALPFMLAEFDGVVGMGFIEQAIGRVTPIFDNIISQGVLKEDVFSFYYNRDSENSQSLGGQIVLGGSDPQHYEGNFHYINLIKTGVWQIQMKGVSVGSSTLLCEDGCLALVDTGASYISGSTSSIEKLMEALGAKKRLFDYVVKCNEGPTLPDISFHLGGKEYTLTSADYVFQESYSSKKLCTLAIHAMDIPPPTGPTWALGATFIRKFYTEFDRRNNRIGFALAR
The test is described as follows: in vitro renin inhibitory activity, radioimmunoassay for angiotensin I. Format: biochemical. The note with it: @ 1 × 10^-8 (molar); 2 hours at 37°. The method, then:
The effectiveness of the aforementioned compounds is determined by a test for in vitro renin inhibitory activity. This activity is determined by a standard radioimmunoassay for angiotensin I. ln this assay the enzyme, renin, incubated for 2 hours at 37° in the presence of a substrate, angiotensinogen, generates the product, angiotensin I. Test compounds are added to the incubation mixture. Relative activity is reported as the percent inhibition at the specified molar concentration or as the IC50, which is the molar concentration of test compound causing a 50% inhibition of the renin activity.
On to `CC(C)C[C@H](O)[C@H](O)[C@H](CC1CCCCC1)NC(=O)CC1OC1[C@H](Cc1ccccc1)NC(=O)OC(C)(C)C` (stereo partly drawn), for which the “In Vitro Activity, percent inhibition” value was determined as 21%.

As for `CC(C)C[C@H](O)[C@H](O)[C@H](CC1CCCCC1)NC(=O)CCC(=O)[C@H](Cc1ccccc1)NC(=O)OCc1ccccc1` [ZPHE.psi.[COCH2 ]GLYCAD, Z-PHE.PSI.[COCH2]GLY-CAD], the “In Vitro Activity, percent inhibition” value is 1%.

The test is the same for the next values; noted with them: @ 3 × 10^-8 (molar); 2 hours at 37°.
Turning to `CC(C)C[C@H](O)[C@H](O)[C@H](CC1CCCCC1)NC(=O)C/C=C/[C@H](Cc1ccccc1)NC(=O)OC(C)(C)C` [BOCPHE.psi.[CHCH]GLYCAD, BOC-PHE.PSI.[E-CH=CH]GLY-CAD], the “In Vitro Activity, percent inhibition” value came out at 1%.

The same test, now with this note: @ 10^-6 (molar; also 1 × 10^-6); 2 hours at 37°.
Take `CC(C)C[C@H](O)[C@H](O)[C@H](CC1CCCCC1)NC(=O)C(N)CC(O)[C@H](Cc1ccccc1)NC(=O)OC(C)(C)C` (single isomer, unassigned) [drawing 42, BOC-PHE.PSI.[CHOHCH2 ]CH(NH2)CO-CAD]: the “In Vitro Activity, percent inhibition” value is 45%.

Take `CC(C)C[C@H](O)[C@H](O)[C@H](CC1CCCCC1)NC(=O)C(N)CC(O)[C@H](Cc1ccccc1)NC(=O)OC(C)(C)C` (single isomer, unassigned) [drawing 43, BOC-PHE.PSI.[CHOHCH2 ]CH(NH2)CO-CAD]: the “In Vitro Activity, percent inhibition” value was 26%.

Regarding `CC(C)C[C@H](O)[C@H](O)[C@H](CC1CCCCC1)NC(=O)CCC(O)[C@@H](N)Cc1ccccc1` (stereo partly drawn) [PHE.psi.[CHOHCH2 ]GLYCAD], the “In Vitro Activity, percent inhibition” value came out at 28%.

The same test, now with this note: renin incubated 2 hours at 37° with angiotensinogen; values marked * = IC50; read-out: In Vitro Activity, IC50 (molar concentration causing a 50% inhibition of the renin activity).
For the compound `CC(C)C[C@H](O)[C@H](O)[C@H](CC1CCCCC1)NC(=O)CCC(O)[C@H](Cc1ccccc1)NC(=O)OC(C)(C)C` (mixture of isomers) [BOCPHE.psi.[CHOHCH2 ]GLYCAD (Mixture of Diastereomers), BOC-PHE.PSI.[CHOHCH2 ]GLY-CAD (Mixture of Diastereomers)], the IC50 was 30 nM.

For `CC(C)C[C@H](O)[C@H](O)[C@H](CC1CCCCC1)NC(=O)CCC(O)[C@H](Cc1ccccc1)NC(=O)OCc1ccccc1` (mixture of isomers) [ZPHE.psi.[CHOHCH2 ]GLYCAD (Mixture of Diastereomers), Z-PHE.PSI.[CHOHCH2 ]GLY-CAD (Mixture of Diastereomers)], the IC50 was determined as 240 nM.

Regarding `CC(C)C[C@H](O)[C@H](O)[C@H](CC1CCCCC1)NC(=O)CCC(O)[C@H](Cc1ccccc1)NC(=O)OC(C)(C)C` (single isomer, unassigned) [BOCPHE.psi.[CHOHCH2 ]GLYCAD (Slow Eluting Diastereomer), BOC-PHE.PSI.[CHOHCH2 ]GLY-CAD (Slow Isomer)], the IC50 is 15 nM.

For the compound `CC(C)C[C@H](O)[C@H](O)[C@H](CC1CCCCC1)NC(=O)CCC(O)[C@H](Cc1ccccc1)NS(=O)(=O)N1CCOCC1` (single isomer, unassigned) [SMOPHE.psi.[CHOHCH2 ]GLYCAD (Isomer A), SMO-PHE.PSI.[CHOHCH2 ]GLY-CAD (Isomer A)], the IC50 came out at 2.3 nM.

Consider `CC(C)C[C@H](O)[C@H](O)[C@H](CC1CCCCC1)NC(=O)CCC(O)[C@H](Cc1ccccc1)NS(=O)(=O)N1CCOCC1` (single isomer, unassigned) [SMOPHE.psi.[CHOHCH2 ]GLYCAD (Isomer B), SMO-PHE.PSI.[CHOHCH2 ]GLY-CAD (Isomer B)], for which the IC50 came to 17 nM.

For the compound `CC(C)C[C@H](O)[C@H](O)[C@H](CC1CCCCC1)NC(=O)CCC(O)[C@H](Cc1ccccc1)NC(=O)OCc1ccccc1` (single isomer, unassigned) [ZPHE.psi.[CHOHCH2 ]GLYCAD (Slow Eluting Diastereomer), Z-PHE.PSI.[CHOHCH2 ]GLY-CAD (Slow Isomer)], the IC50 turned out to be 200 nM.

`CC(C)C[C@H](O)[C@H](O)[C@H](CC1CCCCC1)NC(=O)CNC[C@H](Cc1ccccc1)NS(=O)(=O)N1CCOCC1` [SMOPHE.psi.[CH2 NH]GLYCAD, SMO-PHE.PSI.[CH2 NH]GLY-CAD]: the IC50 came to 2600 nM.

For the compound `CC(C)C[C@H](O)[C@H](O)[C@H](CC1CCCCC1)NC(=O)C=CC(O)[C@H](Cc1ccccc1)NS(=O)(=O)N1CCOCC1` (stereo partly drawn) [SMOPHE.psi.[CHOHCHCHCO]CAD, SMO-PHE.PSI.[CHOHCH=CHCO]CAD], the IC50 worked out at 25 nM.

In the case of `CC(C)C[C@H](O)[C@H](O)[C@H](CC1CCCCC1)NC(=O)CCC(=O)[C@H](Cc1ccccc1)NS(=O)(=O)N1CCOCC1` [SMOPHE.psi.[COCH2 ]GLYCAD, SMO-PHE.PSI.[COCH2]GLY-CAD], the IC50 is 87 nM.
